We go through 1 molecule from doi:10.1101/2022.01.20.477145v2 (biorxiv, 2022).

For orientation: EC50 means the concentration that produces a half-maximal response. A higher EC50 goes with lower potency in that assay.

The assay concerns the target NL-PRMT5 (NLuc-PRMT5) (Homo sapiens, UniProt O14744). Put plainly: NanoBRET target engagement, displacement of CBH-002. Type of assay: cell-based.

NL-PRMT5 (NLuc-PRMT5), sequence (O14744 2-637): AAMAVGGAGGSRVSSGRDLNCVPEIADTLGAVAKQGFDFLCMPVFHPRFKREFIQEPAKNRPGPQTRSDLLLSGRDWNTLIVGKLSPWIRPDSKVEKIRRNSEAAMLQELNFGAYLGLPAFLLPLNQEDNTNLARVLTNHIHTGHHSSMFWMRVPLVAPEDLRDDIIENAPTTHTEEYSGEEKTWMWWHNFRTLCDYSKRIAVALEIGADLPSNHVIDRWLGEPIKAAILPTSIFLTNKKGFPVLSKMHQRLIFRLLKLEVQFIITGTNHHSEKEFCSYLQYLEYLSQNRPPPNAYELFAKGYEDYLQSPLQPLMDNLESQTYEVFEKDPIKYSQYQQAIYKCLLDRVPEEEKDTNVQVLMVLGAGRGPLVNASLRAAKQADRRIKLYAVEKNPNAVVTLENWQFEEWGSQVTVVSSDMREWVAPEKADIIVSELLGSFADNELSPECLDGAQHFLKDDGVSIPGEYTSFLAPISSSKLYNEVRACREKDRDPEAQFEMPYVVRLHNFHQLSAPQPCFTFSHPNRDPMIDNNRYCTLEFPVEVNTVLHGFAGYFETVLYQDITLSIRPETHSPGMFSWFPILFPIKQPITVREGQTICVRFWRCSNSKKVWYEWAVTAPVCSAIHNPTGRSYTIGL

As to `Nc1ncnc2c1ccn2[C@@H]1O[C@H]([C@H](O)c2ccccc2)[C@@H](O)[C@H]1O` [LLY-283], the EC50 is 300 ± 100 nM.
